Data as given in ChEMBL document CHEMBL3046695, “Structure-antifeedant activity relationship of clerodane diterpenoids. Comparative study with withanolides and azadirachtin” (2000).

Tested on: Tenebrio molitor
Assay: Antifeedant activity against third-instar larvae Tenebrio molitor in compound treated carrot slices assessed as feeding inhibition at 100 ppm
Assay type: functional
Conditions: in Daucus carota

Row | SMILES | inhibition at 100 ppm [%]
1 | CC(=O)O[C@H](C[C@@]1(C)[C@H](C)CC[C@]2(C)[C@H]1CCC[C@@]21CO1)/C(=C/CO)CO | 51.9
2 | CC1=C(C)[C@H]([C@H]2O[C@@]3(O)C[C@H]4[C@@H](C[C@H]5O[C@]56CC=CC(=O)[C@]46C)[C@@H]4CC[C@@](O)([C@@H]2C)[C@]43C)OC1=O [TRECHONOLIDE A] | 44.7
3 | C[C@]12C[C@H](c3ccoc3)OC[C@@H]1CC[C@@]13COC(=O)[C@H]1CCC[C@@H]23 | 46
4 | CC(=O)OC[C@@]12[C@@H](OC(C)=O)C[C@@H](C)[C@]3(C[C@H](c4ccoc4)OC3=O)[C@H]1CCC[C@]21CO1 [MONTANIN C] | 25
5 | CC(=O)OC[C@@]12[C@@H](OC(C)=O)C[C@@H](C)[C@]3(C[C@H](c4ccoc4)OC3=O)[C@H]1CCC[C@@H]2C=O | 41
6 | C=C1CCC[C@H]2[C@@](C)(C/C=C(/CO)CCO)[C@H](C)CC[C@@]12C | 57.3
7 | CC(=O)OC[C@@]12[C@@H](OC(C)=O)C[C@@H](C)[C@]3(C[C@H](c4ccoc4)OC3=O)[C@H]1CC[C@H](OC(C)=O)[C@]21CO1 | 30.6
8 | C[C@]12C[C@H](c3ccoc3)OC(=O)[C@H]1CC[C@@]13COC(=O)[C@H]1C=CC[C@@H]23 | 47.3
9 | C[C@@H]1CC[C@@]23COC(=O)C2=CCC[C@H]3[C@@]1(C)CCc1ccoc1 | 31
10 | C[C@@H]1[C@H](O)C[C@@]23COC(=O)[C@H]2CC[C@H](O)[C@H]3[C@@]1(C)CCC1CCOC1 (stereo not given in full) | 48.4
11 | CC(=O)OC[C@@]12[C@@H](OC(C)=O)C[C@@H](C)[C@](C)(C[C@H](OC(C)=O)c3ccoc3)[C@@H]1CCC[C@]21CO1 | 31.4
12 | C[C@@H]1CC[C@@]23COC(=O)C2=CCC[C@H]3[C@@]1(C)CCC1COC(=O)C1 (stereo not given in full) | 62.6
13 | C[C@@H]1CC[C@@]2(CO)C(CO)=CCC[C@H]2[C@@]1(C)CCc1ccoc1 | 48.7
14 | C[C@]12C[C@H](c3ccoc3)OC(=O)[C@@H]1[C@H](O)C[C@@]13COC(=O)C1=CCC[C@H]32 | 26.6
15 | C[C@H](c1ccc2c(c1)CC[C@H]1[C@H]2C[C@@H]2O[C@@]23CC=CC(=O)[C@]13C)[C@@H]1C[C@@]2(C)O[C@@]2(C)[C@@H](O)O1 | 29.9
16 | C/C=C(\C)C(=O)O[C@H]1C[C@@H](OC(C)=O)[C@@]2(C(=O)OC)CO[C@H]3[C@@H](O)[C@@](C)([C@]45O[C@@]4(C)[C@@H]4C[C@H]5O[C@@H]5OC=C[C@@]54O)[C@H]4[C@]1(CO[C@]4(O)C(=O)OC)[C@@H]32 [AZADIRACHTIN A] | 29.6
17 | C[C@@H]1[C@H](O)C[C@@]23COC(=O)C2=CC[C@H](O)[C@H]3[C@@]1(C)CCc1ccoc1 | 31.3
18 | C[C@H]1CC[C@@]23C(=O)OC(C[C@H]2[C@]12C[C@@H](c1ccoc1)OC2=O)[C@H]1O[C@]13C | 57.9
19 | C[C@]12C[C@H](c3ccoc3)OC(=O)[C@@H]1CC[C@@]13COC(=O)C1=CCC[C@H]32 | 22.6
20 | C[C@]12C[C@H](C3CCOC3)OC(=O)[C@@H]1CC[C@@]13COC(=O)[C@H]1CCC[C@@H]23 (stereo not given in full) | 49.4
21 | COC1C=C([C@H]2C[C@@]3(C(=O)O2)[C@H](C)C[C@H](OC(C)=O)[C@]2(COC(C)=O)[C@@H]3CCC[C@]23CO3)C(OC)O1 (stereo not given in full) | 47.3
22 | CC1=CC2C[C@@H]3[C@@]1(CC[C@H](C)[C@@]31C[C@@H](c3ccoc3)OC1=O)C(=O)O2 | 62.7
23 | CC(=O)OC[C@@]12[C@@H](OC(C)=O)C[C@@H](C)[C@]3(C[C@H](c4ccoc4)OC3=O)[C@H]1CCCC2(O)O | 45
24 | CC(=O)OC[C@@]12[C@@H](OC(C)=O)C[C@@H](C)[C@](C)(CC(=O)c3ccoc3)[C@@H]1CCC[C@]21CO1 | 58
25 | CC1=C(C)C(=O)OC(C2CO[C@@]3(O)C[C@H]4[C@@H](C[C@@H](O)[C@@]5(O)CC=CC(=O)[C@]45C)[C@@H]4CC[C@]2(O)C43)C1 (stereo not given in full) | 31.6
